Here are results for 6 compounds from ChEMBL document CHEMBL1201862, “PubChem BioAssay data set” (2004).

Activity calls are given as the source filed them. Where only a bound is given, the exact number is not on record here.

By IC50 is commonly meant the point on the concentration scale where inhibition reaches its midpoint. The EC50 is the concentration that produces a half-maximal response. As usually defined, the CC50 is the concentration that lowers cell viability or growth by half.

One experiment has as its target Procathepsin L (Homo sapiens, UniProt P07711).
The next experiment has as its target T1, Aspartyl aminopeptidase (Plasmodium falciparum 3D7, UniProt Q8I2J3).
T1 sequence (Q8I2J3 whole entry): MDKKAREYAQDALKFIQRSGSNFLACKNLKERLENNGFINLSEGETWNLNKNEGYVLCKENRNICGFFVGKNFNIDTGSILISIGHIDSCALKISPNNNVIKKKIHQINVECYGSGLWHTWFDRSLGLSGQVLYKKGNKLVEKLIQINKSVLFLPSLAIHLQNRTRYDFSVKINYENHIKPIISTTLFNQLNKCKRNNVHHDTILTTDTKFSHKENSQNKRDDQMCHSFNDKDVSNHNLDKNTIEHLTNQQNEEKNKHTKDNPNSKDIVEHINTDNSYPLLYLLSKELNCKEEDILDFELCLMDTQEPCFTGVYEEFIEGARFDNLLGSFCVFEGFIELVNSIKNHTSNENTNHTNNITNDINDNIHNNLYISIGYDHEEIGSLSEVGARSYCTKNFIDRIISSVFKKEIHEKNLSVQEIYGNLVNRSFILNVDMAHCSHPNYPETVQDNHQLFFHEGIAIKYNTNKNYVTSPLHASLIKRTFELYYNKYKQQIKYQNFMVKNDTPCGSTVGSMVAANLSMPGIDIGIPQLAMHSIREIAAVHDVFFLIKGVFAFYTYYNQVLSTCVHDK

For experiment [1], the target named is Lysosomal acid glucosylceramidase (Homo sapiens, UniProt P04062). Description: Dose response cell-based high throughput screening assay to identify enhancers of beta-glucosidase activity. [Related pubchem assays: 784 ]. The format is functional.
Sequence of Lysosomal acid glucosylceramidase (P04062 whole entry): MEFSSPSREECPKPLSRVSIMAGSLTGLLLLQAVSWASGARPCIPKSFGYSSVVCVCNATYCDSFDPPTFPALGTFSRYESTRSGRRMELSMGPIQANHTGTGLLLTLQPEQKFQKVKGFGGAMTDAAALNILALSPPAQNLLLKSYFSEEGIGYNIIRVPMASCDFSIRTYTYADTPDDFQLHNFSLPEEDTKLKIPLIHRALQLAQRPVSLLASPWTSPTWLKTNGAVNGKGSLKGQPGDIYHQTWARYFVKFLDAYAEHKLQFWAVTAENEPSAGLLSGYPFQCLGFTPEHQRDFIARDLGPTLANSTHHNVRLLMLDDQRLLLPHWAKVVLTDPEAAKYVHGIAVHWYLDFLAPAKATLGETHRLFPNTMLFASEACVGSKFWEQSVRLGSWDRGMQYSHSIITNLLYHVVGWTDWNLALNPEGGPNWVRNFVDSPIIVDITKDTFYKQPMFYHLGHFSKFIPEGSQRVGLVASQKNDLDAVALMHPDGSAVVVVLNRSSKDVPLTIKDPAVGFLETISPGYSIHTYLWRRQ
The test system of experiment [2] is HEK293. Briefly: NOD2 signaling inhibitors in MDP-stimulated cells, cell-based, uHTS, luminescence (AID 2001). Format: functional. As to conditions: Homo sapiens.
The test system of experiment [3] is HEK293. Briefly: cells. As to conditions: Homo sapiens.
In experiment [4] the test system is HEK293. Description: cells. The format is functional, cell-based. As to conditions: Homo sapiens.
The target in experiment [5] is Nucleotide-binding oligomerization domain-containing protein 2 (Homo sapiens, UniProt Q9HC29). Description: NOD2 signaling inhibitors, cell-based, luminescence, uHTS, HEK293 (AID 1566). Format: functional.
Experiment [6] relates to HEK293. Briefly: NOD1 signaling inhibitors, primary screen, cell-based, luminescence, uHTS (AID 1578). Format: functional. As to conditions: Homo sapiens.
Experiment [7] relates to HEK293. Description: cells. The format is functional, cell-based. As to conditions: Homo sapiens. This is another data set of the same source.
A short description of experiment [8]: NIH-3T3 fibroblast cytotoxicity, dose response, cytotoxicity control, cell-based, fluorescence, Alamar Blue, secondary assay (AID 2327).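 Also: NIH-3T3 mouse fibroblasts cultured with fluconazole at 8 µg/mL.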 The format is functional. For orientation: The colour change of resazurin is a common sign of viable cells or microbes.
For experiment [9], the target named is T2, Heat shock 70 kDa protein 1A (Homo sapiens, UniProt P0DMV8). Description: Hsp70 inhibitors, biochemical, TR-FRET (AID 786).
T2 sequence (P0DMV8 whole entry): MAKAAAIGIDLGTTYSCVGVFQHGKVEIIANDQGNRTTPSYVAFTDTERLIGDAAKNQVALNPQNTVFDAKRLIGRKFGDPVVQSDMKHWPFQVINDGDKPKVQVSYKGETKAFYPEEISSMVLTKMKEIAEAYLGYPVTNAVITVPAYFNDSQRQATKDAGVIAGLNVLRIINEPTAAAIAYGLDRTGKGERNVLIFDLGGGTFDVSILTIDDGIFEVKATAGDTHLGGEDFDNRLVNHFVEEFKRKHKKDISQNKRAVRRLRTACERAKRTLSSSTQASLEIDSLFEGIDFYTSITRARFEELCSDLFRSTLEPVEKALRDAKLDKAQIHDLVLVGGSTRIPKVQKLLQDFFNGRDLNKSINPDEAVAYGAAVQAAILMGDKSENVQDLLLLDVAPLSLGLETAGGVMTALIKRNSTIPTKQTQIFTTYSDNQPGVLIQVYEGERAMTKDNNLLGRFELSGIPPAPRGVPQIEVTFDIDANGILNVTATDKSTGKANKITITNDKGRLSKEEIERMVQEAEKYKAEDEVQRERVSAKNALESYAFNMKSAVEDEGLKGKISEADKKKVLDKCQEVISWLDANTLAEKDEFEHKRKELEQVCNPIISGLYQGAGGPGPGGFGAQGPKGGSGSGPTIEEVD
The target of another experiment is Tumor necrosis factor (Homo sapiens, UniProt P01375). Briefly: TNFa-triggered NF-kB activation inhibitors, SAR follow-up, cell-based, revised (AID 2337). Format: functional.
Sequence of Tumor necrosis factor (P01375 whole entry): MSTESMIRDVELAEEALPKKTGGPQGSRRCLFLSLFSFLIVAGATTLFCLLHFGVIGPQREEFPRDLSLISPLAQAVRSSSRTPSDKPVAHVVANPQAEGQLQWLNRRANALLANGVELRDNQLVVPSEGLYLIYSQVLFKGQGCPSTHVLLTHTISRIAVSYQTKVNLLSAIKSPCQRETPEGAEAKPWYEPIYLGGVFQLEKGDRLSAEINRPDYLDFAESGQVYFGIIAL
Experiment [10] deals with HEK293. Briefly: cells. The format is functional, cell-based. To be noted: Homo sapiens. This is another data set of the same source.
Experiment [11] deals with T2, Heat shock 70 kDa protein 1A. Description: Hsp70 inhibitors, probe displacement, primary screen, biochemical, fluorescence polarization (AID 583). (In general: In fluorescence polarisation assays a small probe gives low polarisation when free and higher when bound to something large.)
The target of experiment [12] is T3, Nucleotide-binding oligomerization domain-containing protein 1 (Homo sapiens, UniProt Q9Y239).
T3 sequence (Q9Y239 whole entry): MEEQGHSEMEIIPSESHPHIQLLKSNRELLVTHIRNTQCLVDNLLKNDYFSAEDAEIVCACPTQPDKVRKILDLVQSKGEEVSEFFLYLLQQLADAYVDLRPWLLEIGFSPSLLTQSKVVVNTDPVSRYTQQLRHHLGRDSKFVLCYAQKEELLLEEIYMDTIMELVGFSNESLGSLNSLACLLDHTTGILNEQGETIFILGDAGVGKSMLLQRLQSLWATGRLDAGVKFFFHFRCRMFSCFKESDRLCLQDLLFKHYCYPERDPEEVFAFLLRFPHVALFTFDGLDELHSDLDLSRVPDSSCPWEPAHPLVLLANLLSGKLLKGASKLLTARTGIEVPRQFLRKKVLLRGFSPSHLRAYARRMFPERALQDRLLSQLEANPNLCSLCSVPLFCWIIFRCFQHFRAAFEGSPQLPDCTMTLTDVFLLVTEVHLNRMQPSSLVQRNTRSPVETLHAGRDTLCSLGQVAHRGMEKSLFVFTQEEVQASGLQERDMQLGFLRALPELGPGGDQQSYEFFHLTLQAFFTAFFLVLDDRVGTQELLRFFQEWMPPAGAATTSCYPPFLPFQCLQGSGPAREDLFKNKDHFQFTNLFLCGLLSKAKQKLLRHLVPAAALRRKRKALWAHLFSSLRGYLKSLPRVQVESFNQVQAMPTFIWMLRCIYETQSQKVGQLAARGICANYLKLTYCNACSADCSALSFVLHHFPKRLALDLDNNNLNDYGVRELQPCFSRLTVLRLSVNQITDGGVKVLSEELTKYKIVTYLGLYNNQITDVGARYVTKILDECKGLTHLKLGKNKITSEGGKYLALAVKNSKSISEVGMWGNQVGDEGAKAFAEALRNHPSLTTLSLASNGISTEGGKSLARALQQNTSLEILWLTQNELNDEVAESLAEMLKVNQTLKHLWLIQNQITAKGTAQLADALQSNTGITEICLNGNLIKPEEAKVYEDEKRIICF
Briefly: NOD1 signaling inhibitors, SAR follow-up, revised (AID 2333). The format is functional.

Experiment [13] can be described thus: C. albicans growth with fluconazole, confirmation, fluorescence, retest (AID 2467). Format: functional, cell-based.
For experiment [14], the target named is Melanin-concentrating hormone receptor 1 (Homo sapiens, UniProt Q99705). Description: Fluorescence-based counterscreen for antagonists of the G-protein coupled receptor 7 (GPR7): cell-based high throughput dose response assay to identify antagonists of the melanin-concentrating hormone receptor 1 (MCHR1). Format: functional. Background: Counterscreens check selectivity or assay interference.
Sequence of Melanin-concentrating hormone receptor 1 (Q99705 whole entry): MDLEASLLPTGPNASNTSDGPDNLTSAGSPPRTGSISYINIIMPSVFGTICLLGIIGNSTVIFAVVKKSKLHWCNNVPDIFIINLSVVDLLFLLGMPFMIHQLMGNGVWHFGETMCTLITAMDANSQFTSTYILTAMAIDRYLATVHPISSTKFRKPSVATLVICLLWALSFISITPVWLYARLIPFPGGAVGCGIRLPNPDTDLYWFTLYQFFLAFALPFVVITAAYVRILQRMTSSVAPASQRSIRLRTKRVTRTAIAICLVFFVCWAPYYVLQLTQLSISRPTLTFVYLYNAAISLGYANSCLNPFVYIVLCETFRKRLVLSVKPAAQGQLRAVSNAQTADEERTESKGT

The target in experiment [15] is Neuropeptides B/W receptor type 1 (Homo sapiens, UniProt P48145). Description: Fluorescence-based dose response cell-based high throughput screening assay to identify antagonists of the G-protein coupled receptor 7 (GPR7). [Related pubchem assays: 1952 (Screening assay (GPR7 antagonists).), 1880 (Summary AID.)]. Format: functional.
Sequence of Neuropeptides B/W receptor type 1 (P48145 whole entry): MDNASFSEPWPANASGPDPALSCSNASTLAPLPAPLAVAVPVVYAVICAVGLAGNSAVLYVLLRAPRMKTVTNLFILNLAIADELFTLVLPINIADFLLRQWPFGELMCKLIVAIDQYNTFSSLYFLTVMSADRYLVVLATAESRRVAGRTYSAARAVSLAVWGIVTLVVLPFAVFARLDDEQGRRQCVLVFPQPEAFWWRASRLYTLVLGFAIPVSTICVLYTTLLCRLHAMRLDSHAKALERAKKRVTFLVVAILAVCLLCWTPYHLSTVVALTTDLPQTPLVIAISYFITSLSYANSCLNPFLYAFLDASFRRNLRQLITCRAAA
Another experiment has as its target Cytochrome P450 2D6 (Homo sapiens, UniProt P10635). Description: qHTS Assay for Inhibitors and Substrates of Cytochrome P450 2D6. [Related pubchem assays: 410 ]. To be noted: read-out: Potency. Format: ADME.
Experiment [16] relates to Streptococcus sp. 'group A'. Description: growth inhibition of control SK(-) GAS strain, dose response, counter-screen for streptokinase expression inhibitor project, luminescence, kanamycin, BacTiterGlo, confirmation (AID 1900). Format: functional, organism-based.
The next experiment relates to Vero. Description: Vero cell cytotoxicity, cytotoxicity control for flavivirus capping enzyme inhibitors (AID 588742). As to conditions: Chlorocebus sabaeus. The format is functional.
The target of a further experiment is T4, Streptokinase A (Streptococcus pyogenes serotype M1, UniProt P10520).
T4 sequence (P10520 whole entry): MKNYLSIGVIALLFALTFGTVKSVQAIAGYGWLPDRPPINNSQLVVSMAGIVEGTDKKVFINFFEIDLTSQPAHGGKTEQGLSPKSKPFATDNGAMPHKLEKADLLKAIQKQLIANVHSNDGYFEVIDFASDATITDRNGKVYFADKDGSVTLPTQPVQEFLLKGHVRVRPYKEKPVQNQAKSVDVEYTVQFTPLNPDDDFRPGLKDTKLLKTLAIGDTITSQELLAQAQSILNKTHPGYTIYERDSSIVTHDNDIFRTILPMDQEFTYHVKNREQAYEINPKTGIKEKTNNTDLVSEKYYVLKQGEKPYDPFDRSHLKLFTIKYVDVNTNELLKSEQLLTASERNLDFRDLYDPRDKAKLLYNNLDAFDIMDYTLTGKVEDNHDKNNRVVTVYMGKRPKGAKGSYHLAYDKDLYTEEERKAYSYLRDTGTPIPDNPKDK
Description: S. pyogenes streptokinase expression inhibitors, potency, dose response, plasminogen activation absorbance, OD405 (AID 1914).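 Also: secreted streptokinase activity via plasminogen activation per viability signal from cell pellet.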 The format is functional, Streptococcus pyogenes M1 GAS.

Experiment [17] concerns the target Serine/threonine-protein phosphatase (Homo sapiens, UniProt Q9BPW0). Briefly: Counterscreen for inhibitors of PP1: fluorescence-based biochemical high throughput dose response assay to identify inhibitors of Protein Phosphatase 5 (PP5). [Related pubchem assays: 2034 (Summary (PP5 inhibitors)), 1987 (PP5 inhibitors in singlate), 2235 (PP1 inhibitors in singlate)].

In another experiment the test system is Streptococcus. Briefly: Group A Streptococcus viability loss, dose response, counter-screen for streptokinase expression inhibitor project, luminescence, BacTiterGlo (AID 1915).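 Also: potency for reduction of bacterial viability or growth.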 The format is functional, organism-based.
A further experiment concerns the target Nonstructural protein 1 (Influenza A virus, UniProt Q194T2). The format is functional, Influenza A virus (A/California/07/2009(H1N1)).
Experiment [18] addresses T5, Alkaline phosphatase, tissue-nonspecific isozyme (Homo sapiens, UniProt P05186).
T5 sequence (P05186 whole entry): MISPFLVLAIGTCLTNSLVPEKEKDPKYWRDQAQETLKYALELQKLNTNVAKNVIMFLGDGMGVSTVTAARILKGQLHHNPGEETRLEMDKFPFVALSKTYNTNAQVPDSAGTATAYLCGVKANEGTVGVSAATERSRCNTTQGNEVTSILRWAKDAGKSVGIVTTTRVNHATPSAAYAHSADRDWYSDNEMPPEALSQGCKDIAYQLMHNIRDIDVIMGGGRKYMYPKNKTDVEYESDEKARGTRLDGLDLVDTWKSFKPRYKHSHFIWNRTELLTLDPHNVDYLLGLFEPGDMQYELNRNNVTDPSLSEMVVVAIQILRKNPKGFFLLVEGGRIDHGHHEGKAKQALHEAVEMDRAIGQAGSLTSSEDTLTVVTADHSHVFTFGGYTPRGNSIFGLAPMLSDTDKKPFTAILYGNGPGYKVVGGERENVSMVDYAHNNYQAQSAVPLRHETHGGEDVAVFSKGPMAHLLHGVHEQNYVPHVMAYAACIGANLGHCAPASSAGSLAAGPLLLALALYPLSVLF

Experiment [19] has as its target Serine/threonine-protein phosphatase PP1-alpha catalytic subunit (Homo sapiens, UniProt P62136). Description: PP1 phosphatase inhibitors, dose response, biochemical, fluorescence (AID 2403).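 Also: phosphatase turnover of OMFP into fluorescent 3-O-methylfluorescein.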
Experiment [20] deals with Disintegrin and metalloproteinase domain-containing protein 17 (Homo sapiens, UniProt P78536). Description: exosite inhibitors of ADAM17, dose response, biochemical (AID 743260).
Sequence of Disintegrin and metalloproteinase domain-containing protein 17 (P78536 whole entry, the tested form may be a part): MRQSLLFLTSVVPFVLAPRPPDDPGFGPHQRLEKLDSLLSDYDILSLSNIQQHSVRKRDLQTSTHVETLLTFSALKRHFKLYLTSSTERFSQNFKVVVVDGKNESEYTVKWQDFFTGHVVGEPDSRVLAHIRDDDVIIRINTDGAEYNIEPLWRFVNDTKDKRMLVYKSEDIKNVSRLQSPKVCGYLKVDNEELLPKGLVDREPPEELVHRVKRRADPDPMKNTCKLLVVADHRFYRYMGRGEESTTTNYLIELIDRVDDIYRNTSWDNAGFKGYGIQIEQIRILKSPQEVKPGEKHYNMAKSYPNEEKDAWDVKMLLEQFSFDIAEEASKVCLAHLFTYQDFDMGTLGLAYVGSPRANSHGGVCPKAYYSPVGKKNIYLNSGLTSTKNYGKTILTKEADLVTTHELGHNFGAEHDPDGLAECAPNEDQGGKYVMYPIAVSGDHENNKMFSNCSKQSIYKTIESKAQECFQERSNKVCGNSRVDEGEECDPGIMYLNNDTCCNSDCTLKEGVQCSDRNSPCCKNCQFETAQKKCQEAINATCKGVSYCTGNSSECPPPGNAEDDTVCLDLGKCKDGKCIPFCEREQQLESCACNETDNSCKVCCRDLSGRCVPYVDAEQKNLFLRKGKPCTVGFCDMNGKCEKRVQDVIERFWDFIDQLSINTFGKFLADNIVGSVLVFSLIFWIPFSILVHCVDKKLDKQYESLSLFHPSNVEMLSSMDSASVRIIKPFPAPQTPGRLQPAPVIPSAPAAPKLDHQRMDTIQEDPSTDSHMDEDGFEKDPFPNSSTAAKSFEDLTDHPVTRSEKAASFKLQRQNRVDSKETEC

Sequence of Nonstructural protein 1 (Q194T2 whole entry): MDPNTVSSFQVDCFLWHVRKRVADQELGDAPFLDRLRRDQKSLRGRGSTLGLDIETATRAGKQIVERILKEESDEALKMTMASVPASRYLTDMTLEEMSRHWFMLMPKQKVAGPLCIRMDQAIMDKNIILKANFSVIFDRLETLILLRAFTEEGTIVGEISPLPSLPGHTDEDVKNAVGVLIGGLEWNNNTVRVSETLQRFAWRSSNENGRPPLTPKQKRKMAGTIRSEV
Sequence of Serine/threonine-protein phosphatase PP1-alpha catalytic subunit (P62136 whole entry, the tested form may be a part): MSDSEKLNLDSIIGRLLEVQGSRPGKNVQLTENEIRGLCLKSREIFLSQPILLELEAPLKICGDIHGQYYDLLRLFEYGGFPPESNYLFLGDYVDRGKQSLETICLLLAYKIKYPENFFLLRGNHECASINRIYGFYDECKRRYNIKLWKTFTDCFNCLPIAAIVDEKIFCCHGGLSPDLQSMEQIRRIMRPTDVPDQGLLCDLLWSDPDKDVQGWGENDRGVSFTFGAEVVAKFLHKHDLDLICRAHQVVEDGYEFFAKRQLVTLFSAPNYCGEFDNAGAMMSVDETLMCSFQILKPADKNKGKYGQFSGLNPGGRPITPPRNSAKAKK
Sequence of Procathepsin L (P07711 whole entry): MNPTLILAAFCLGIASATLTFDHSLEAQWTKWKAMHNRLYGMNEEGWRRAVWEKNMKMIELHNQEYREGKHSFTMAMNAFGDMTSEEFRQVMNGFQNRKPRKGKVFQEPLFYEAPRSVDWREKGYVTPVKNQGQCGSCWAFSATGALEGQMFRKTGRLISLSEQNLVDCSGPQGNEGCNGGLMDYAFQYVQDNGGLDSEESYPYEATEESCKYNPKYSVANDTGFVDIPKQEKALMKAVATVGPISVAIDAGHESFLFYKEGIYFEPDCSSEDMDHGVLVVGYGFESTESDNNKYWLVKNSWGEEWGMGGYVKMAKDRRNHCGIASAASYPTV
Sequence of Serine/threonine-protein phosphatase (Q9BPW0 whole entry): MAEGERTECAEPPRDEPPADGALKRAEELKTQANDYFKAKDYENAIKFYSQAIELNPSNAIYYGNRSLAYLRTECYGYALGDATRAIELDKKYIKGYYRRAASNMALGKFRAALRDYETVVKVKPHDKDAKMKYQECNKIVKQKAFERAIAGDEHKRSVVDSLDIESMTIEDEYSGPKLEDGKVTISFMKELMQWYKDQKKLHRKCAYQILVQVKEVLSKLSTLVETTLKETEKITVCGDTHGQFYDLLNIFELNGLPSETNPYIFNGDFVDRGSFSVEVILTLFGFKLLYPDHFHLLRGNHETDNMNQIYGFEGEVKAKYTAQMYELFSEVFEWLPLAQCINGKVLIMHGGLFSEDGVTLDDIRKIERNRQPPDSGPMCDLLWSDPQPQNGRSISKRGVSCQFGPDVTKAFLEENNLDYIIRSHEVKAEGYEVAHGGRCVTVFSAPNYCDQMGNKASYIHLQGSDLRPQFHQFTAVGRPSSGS
Sequence of Cytochrome P450 2D6 (P10635 whole entry): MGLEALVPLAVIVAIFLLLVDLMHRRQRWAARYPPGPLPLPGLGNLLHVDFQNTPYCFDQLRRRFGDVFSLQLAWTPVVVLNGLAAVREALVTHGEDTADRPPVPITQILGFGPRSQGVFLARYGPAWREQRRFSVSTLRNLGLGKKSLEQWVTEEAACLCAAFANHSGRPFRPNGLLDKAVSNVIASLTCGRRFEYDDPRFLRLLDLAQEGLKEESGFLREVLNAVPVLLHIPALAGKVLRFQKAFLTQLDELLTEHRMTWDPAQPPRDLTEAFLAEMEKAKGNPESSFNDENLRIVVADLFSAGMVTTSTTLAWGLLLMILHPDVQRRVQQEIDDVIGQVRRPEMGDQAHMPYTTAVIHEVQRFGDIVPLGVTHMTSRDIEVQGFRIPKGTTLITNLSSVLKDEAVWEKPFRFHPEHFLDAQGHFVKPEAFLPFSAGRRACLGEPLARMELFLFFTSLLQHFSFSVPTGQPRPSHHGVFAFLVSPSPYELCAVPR

Turning to `CN1C(=O)N(c2cccc3ccccc23)C(n2cncn2)C1(C)C` (stereo not drawn), the IC50 on Procathepsin L was > 59.6 µM (not active); at Aspartyl aminopeptidase, 1.8 µM (active).
With `CCCCNC(=O)C1CCCN1C(=O)Nc1cccc(OC)c1` (stereo not drawn), in experiment [1], the EC50 was > 50 µM (not active).
Take `O=[N+]([O-])c1ccc(Cl)c(/C=C/c2cc(C(F)(F)F)nc(O)n2)c1`: the IC50 in the experiment on HEK293 [2] was 11.8 µM (inactive); in the experiment with HEK293 [3], > 20 µM (inactive); with HEK293 [4], > 20 µM (inactive); in the experiment with HEK293 [7] it was > 20 µM (inactive); in experiment [9], > 100 µM (not active); on Tumor necrosis factor it was 10.3 µM (active). Also, the IC50 with HEK293 [10] was 10.2 µM (active); in [11], 46.4 µM (active); in experiment [12], 4.4 µM (active). In addition, the EC50 in experiment [5] is > 20 µM (inactive); in the experiment with HEK293 [6], 6.85 µM (active); in [8], > 150 µM (inactive); in experiment [13], 1.8 µM (active).
As to `O=C(CCN(CCO)Cc1ccccc1)Nc1ccc(Br)cc1`, the IC50 was 17.6 µM (not active) in experiment [14] and > 14.6 µM (not active) in experiment [15].
For `C=C(C)C(O)C(CC/C=C(\C)C(=O)OCC)OC` (stereo not drawn), at Cytochrome P450 2D6, the AC50 is 3.16 µM (inconclusive).
In the case of `Oc1c(C(c2ccccn2)N2CCCCC2)cc(Cl)c2cccnc12` (stereo not drawn), the EC50 in experiment [16] is 6.02 µM (active); on Streptokinase A, > 150 µM (not active); in the experiment on Streptococcus it was 15.4 µM (active); in [18], 81.1 µM (not active). In addition, the CC50 in the experiment with Vero is 31.4 µM (active). The IC50 in [17] was 42.3 µM (not active); on Nonstructural protein 1 it was 8.02 µM (active); in experiment [19], 2.48 µM (active); in experiment [20], 17 µM (inactive).
